Source: article PMC3265452 (PLoS Neglected Tropical Diseases, 2012)
Structures can show the parent of a compound that is named as a salt.

Molecular target: AaDOP2 (Aedes aegypti, UniProt H6D5H2)
Assay: AaDOP2 antagonist screen of the LOPAC1280 library (HEK-CRELuc-Aadop2 cells, luminescence)
Format: cell-based
Conditions: not given

Chain of AaDOP2 (H6D5H2 1-476): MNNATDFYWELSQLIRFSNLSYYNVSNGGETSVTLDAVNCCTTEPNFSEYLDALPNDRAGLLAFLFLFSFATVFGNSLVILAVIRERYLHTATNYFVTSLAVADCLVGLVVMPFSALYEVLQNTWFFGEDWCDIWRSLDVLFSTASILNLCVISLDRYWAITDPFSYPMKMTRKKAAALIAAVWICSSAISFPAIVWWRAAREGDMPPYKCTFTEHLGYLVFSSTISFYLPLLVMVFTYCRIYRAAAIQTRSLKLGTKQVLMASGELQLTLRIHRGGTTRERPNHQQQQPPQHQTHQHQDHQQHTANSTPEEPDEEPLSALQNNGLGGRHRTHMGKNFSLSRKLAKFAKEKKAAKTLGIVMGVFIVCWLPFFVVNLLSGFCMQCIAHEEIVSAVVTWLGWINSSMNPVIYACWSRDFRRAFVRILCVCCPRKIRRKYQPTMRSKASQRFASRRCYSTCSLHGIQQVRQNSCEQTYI

Row | Molecule | Compound effect (percent receptor signaling in presence of test compound, relative lux units relative to the SCH23390 control)
1 | CO/N=C(\C(=O)N[C@@H]1C(=O)N2C(C(=O)O)=C(COC(C)=O)CS[C@H]12)c1csc(N)n1 [Compound 300, Cefotaxime sodium] | 93
2 | OC[C@H]1O[C@@H](n2cnc3c(Nc4ccccc4)ncnc32)[C@H](O)[C@@H]1O [Compound 1008, N6-Phenyladenosine] | 99
3 | CC(=O)[C@H]1CC[C@H]2[C@@H]3CCC4=CC(=O)CC[C@]4(C)[C@H]3CC[C@]12C [Compound 914, Progesterone] | 77
4 | CC[C@H](CO)Nc1nc(NCc2ccccc2)c2ncn(C(C)C)c2n1 [Compound 1055, Roscovitine] | 28
5 | NC(=NCc1ccccc1)NC(=O)c1nc(Cl)c(N)nc1N [Compound 166, Benzamil hydrochloride] | 60
6 | Cn1cnc2c1c(=O)[nH]c(=O)n2C [Compound 1175, Theobromine] | 110
7 | CCCCCCCC/C=C\CCCCCCCC(=O)O [Compound 898, Oleic Acid] | 95
8 | CN(C)[C@@H]1C(O)=C(C(N)=O)C(=O)[C@@]2(O)C(O)=C3C(=O)c4c(O)ccc(Cl)c4[C@@H](O)[C@H]3C[C@@H]12 [Compound 403, Demeclocycline hydrochloride] | 84
9 | O=C(O)CCCCCCC1C(=O)NC(=O)N1CCC(O)C1CCCCC1 (centres unmarked) [Compound 888, BW 245C] | 120
10 | CC(C)(C=O)Cc1cc(C(C)(C)C)c(O)c(C(C)(C)C)c1 [Compound 226, CGP-13501] | 98
11 | CC(C)(C)c1ccc(S(=O)(=O)/C=C/C#N)cc1 [Compound 179, Bay 11-7085] | 76
12 | Cl.Cl.NNCc1cccc(O)c1 [Compound 612, 3-Hydroxybenzylhydrazine dihydrochloride] | 104
13 | N#CC(C#N)=C(N)/C(C#N)=C/c1ccc(O)cc1 [Compound 1194, Tyrphostin AG 112] | 118
14 | O=S(=O)(c1cccc2c(Cl)cccc12)N1CCCNCC1 [Compound 229, ML-9] | 102
15 | Clc1ccc(C(c2ccccc2Cl)C(Cl)Cl)cc1 (centres unmarked) [Compound 242, 1-(2-Chlorophenyl)-1-(4-chlorophenyl)-2,2-dichloroethane] | 108
16 | OC[C@H]1O[C@@H](n2cnc3c(NC4CCCC4)ncnc32)[C@H](O)[C@@H]1O [Compound 303, N6-Cyclopentyladenosine] | 89
17 | COc1ccc(OC)c(C(O)C(C)N)c1 (centres unmarked) [Compound 789, Methoxamine hydrochloride] | 92
18 | COc1cc(CC(=O)O)ccc1O [Compound 576, 4-Hydroxy-3-methoxyphenylacetic acid] | 82
19 | CN(C)C(=O)C(CCN1CCC(O)(c2ccc(Cl)cc2)CC1)(c1ccccc1)c1ccccc1 [Compound 703, Loperamide hydrochloride] | 83
20 | Br.Br.N=C(N)SCCN [Compound 64, 2-(2-Aminoethyl)isothiourea dihydrobromide] | 104
21 | N[C@@H](Cc1c[nH]c2ccc(O)cc12)C(=O)O [Compound 615, 5-Hydroxy-L-tryptophan] | 126
22 | N=C(NCCC[C@H](N)C(=O)O)N[N+](=O)[O-] [Compound 858, NG-Nitro-L-arginine] | 95
23 | Cc1ccc(O)c(N=Nc2ccccc2)n1 [Compound 1125, SIB 1757] | 46
24 | CC(C)(CO)Cc1cc(C(C)(C)C)c(O)c(C(C)(C)C)c1 [Compound 225, CGP-7930] | 89
25 | N[C@H](C(=O)O)[C@H]1C[C@@H]1C(=O)O [Compound 350, (2S,1'S,2'S)-2-(carboxycyclopropyl)glycine] | 97
26 | C[n+]1cc2c3c(ccc2c2ccc4cc5c(cc4c21)OCO5)OCO3 [Compound 1103, Sanguinarine chloride] | 75
27 | N#C/C(=C\c1ccc(O)c(O)c1)C(=O)c1ccc(O)c(O)c1 [Compound 1207, Tyrphostin AG 538] | 75
28 | (-)-Scopolamine methyl nitrate [Compound 1087] | 113
29 | O=C1Cc2c([nH]c3ccc([N+](=O)[O-])cc23)-c2ccccc2N1 [Compound 54, Alsterpaullone] | 92
30 | O=C1CC[C@@]2(O)[C@H]3Cc4ccc(O)c5c4[C@@]2(CCN3CC2CC2)[C@H]1O5 [Compound 845, Naltrexone hydrochloride] | 101

Same assay, conditions: 10 µM compound, 300 nM dopamine, 2 hr; hit = compound effect <20

Row | Molecule | Compound effect (percent receptor signaling in presence of test compound, relative lux units relative to the SCH23390 control)
31 | MDL 26,630 trihydrochloride [Compound 828] | 93%
32 | CCCN(CCc1ccccc1)C1CCc2c(O)cccc2C1.Cl (racemic) [Compound 1005, (±)-PPHT hydrochloride] | 73%
33 | CCc1cc(Cl)c(OC)c(C(=O)NC[C@@H]2CCCN2CC)c1O.Cl [Compound 505, S-(-)-Eticlopride hydrochloride] | 85%
34 | NCCCS(=O)(=O)O.[Na] [Compound 47, 3-Amino-1-propanesulfonic acid sodium] | 94%
35 | CC1CNCCN1S(=O)(=O)c1cccc2cnccc12.Cl.Cl (centres unmarked) [Compound 620, H-7 dihydrochloride] | 38%
36 | CCCCC1(C2CCCC2)Cc2cc(OCC(=O)O)c(Cl)c(Cl)c2C1=O (stereo not drawn) [Compound 454, R(+)-Butylindazone] | 97%
37 | Nc1ncnc2c1c(-c1ccc(Oc3ccccc3)cc1)cn2C1CCCC1 [Compound 477, 7-Cyclopentyl-5-(4-phenoxy)phenyl-7H-pyrrolo[2,3-d]pyrimidin-4-ylamine] | 76%
38 | CC(=O)O.NC(=NCCC[C@H](N)C(=O)O)NO [Compound 598, NG-Hydroxy-L-arginine acetate] | 94%
